Here are results for eleven molecules from ChEMBL document CHEMBL1201862, “PubChem BioAssay data set” (2004).

Test systems include NCI-H226; A549; CAKI-1; UACC-257; BT-549; 786-0; T47D; UO-31; SF-295; EKVX; OVCAR-8; MDA-N; HL-60; HOP-62; TK-10; NCI/ADR-RES; LOX IMVI; MCF7; KM12.
Assay in all cases: DTP human tumour cell line panel, 48 h

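The compound was tested at five concentrations on cells cultured in 96-well plates, with a 48-hour exposure period. Here, GI50 denotes the concentration required for 50% inhibition of growth.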 Calls of active or inactive are those of the source. Cut-off read from the data, not from the text of the source: active = GI50 up to about 1.1 µM and inactive = higher. Bounds are passed on as bounds.

Regarding `NC(=O)C(Nc1c(Cl)cccc1Cl)c1cc2cc(Br)ccc2nc1Cl` (stereo not drawn), the GI50 – broadly, the concentration at which growth is held to half of that of the control – in the assay with NCI-H226 is 45.5 µM (inactive); in the assay with A549, 63.1 µM (inactive); in the assay on CAKI-1 it was 76.6 µM (inactive); in the assay with UACC-257 it was 83.2 µM (inactive); with BT-549, 36.8 µM (inactive); in the assay on 786-0 it was > 100 µM (inactive). Besides, the GI50 is 44.4 µM (inactive) with T47D; 55 µM (inactive) in the assay on UO-31; 58.9 µM (inactive) in the assay on SF-295; 25.8 µM (inactive) in the assay with EKVX; 80.7 µM (inactive) in the assay with OVCAR-8; 27.6 µM (inactive) with MDA-N. Further, the GI50 is 28.4 µM (inactive) in the assay with HL-60; 65.8 µM (inactive) in the assay with HOP-62; 34.6 µM (inactive) with TK-10; 42.5 µM (inactive) in the assay with NCI/ADR-RES; 59.6 µM (inactive) in the assay with LOX IMVI; 30.1 µM (inactive) in the assay on MCF7. The GI50 in the assay on KM12 was 38 µM (inactive).
Take `CC(=O)c1ccc2c(c1)CC1(C2)Cc2cc3c(c(C(=O)O)c2C1)CCC3` (stereo not drawn): the GI50 in the assay with NCI-H226 was > 100 µM (inactive); in the assay with A549, 37.9 µM (inactive); with CAKI-1 it was > 100 µM (inactive); in the assay on UACC-257, > 100 µM (inactive); with BT-549 it was > 100 µM (inactive); in the assay on 786-0 it was > 100 µM (inactive). The GI50 in the assay on T47D was 53.5 µM (inactive); in the assay on UO-31, 40 µM (inactive); with SF-295, > 100 µM (inactive); in the assay with EKVX it was > 100 µM (inactive); in the assay on OVCAR-8, > 100 µM (inactive); in the assay with MDA-N, > 100 µM (inactive). The GI50 with HL-60 is > 100 µM (inactive); in the assay with HOP-62, > 100 µM (inactive); in the assay on TK-10, > 100 µM (inactive); in the assay on NCI/ADR-RES, 80.5 µM (inactive); in the assay with LOX IMVI, > 100 µM (inactive); in the assay with MCF7, > 100 µM (inactive). Moreover, the GI50 with KM12 was > 100 µM (inactive).
Consider `FC1=C2CCCCCC2SC1(F)F` (stereo not drawn), for which the GI50 in the assay with NCI-H226 was > 100 µM (inactive); in the assay with A549 it was > 100 µM (inactive); in the assay on CAKI-1, 35.6 µM (inactive); in the assay with UACC-257 it was 99.3 µM (inactive); with BT-549 it was > 100 µM (inactive); in the assay on 786-0, > 100 µM (inactive). For the same molecule, the GI50 with T47D is > 100 µM (inactive); in the assay on UO-31, > 100 µM (inactive); in the assay on SF-295 it was > 100 µM (inactive); with EKVX, > 100 µM (inactive); in the assay on OVCAR-8, 70.3 µM (inactive); in the assay with MDA-N it was 42.2 µM (inactive). Further, the GI50 in the assay on HL-60 was 12.7 µM (inactive); in the assay on TK-10, 36.6 µM (inactive); in the assay with NCI/ADR-RES it was > 100 µM (inactive); in the assay on LOX IMVI, 15.7 µM (inactive); in the assay on MCF7, 71.9 µM (inactive); with KM12, > 100 µM (inactive).
Take `CC1(C)C(OC(=O)c2ccccc2)C[C@]23CCC[C@](C)(C[C@@H](O)C12)C3` (stereo partly drawn): the GI50 is 18.8 µM (inactive) in the assay on NCI-H226; 16.3 µM (inactive) in the assay with A549; 19.9 µM (inactive) in the assay with CAKI-1; 20.4 µM (inactive) in the assay with UACC-257; 15.6 µM (inactive) in the assay with BT-549; 19.6 µM (inactive) in the assay on 786-0. For the same molecule, the GI50 in the assay with T47D was 19.9 µM (inactive); in the assay on UO-31, 18.8 µM (inactive); with SF-295, 13.9 µM (inactive); in the assay with EKVX, 19.9 µM (inactive); in the assay with OVCAR-8, 16.7 µM (inactive); in the assay on MDA-N, 18.9 µM (inactive). The GI50 in the assay with HL-60 was 31.5 µM (inactive); in the assay with HOP-62, 24 µM (inactive); in the assay with TK-10, 29.5 µM (inactive); in the assay with NCI/ADR-RES it was 14.5 µM (inactive); in the assay on LOX IMVI, 17 µM (inactive); in the assay with MCF7, 16.4 µM (inactive). Moreover, the GI50 in the assay with KM12 is 16.7 µM (inactive).
Consider `Oc1ccccc1-c1n[nH]c(-c2ccccc2O)n1`, for which the GI50 in the assay on NCI-H226 is 4.38 µM (inactive); in the assay on A549 it was 2.21 µM (inactive); in the assay on CAKI-1 it was 3.22 µM (inactive); in the assay on BT-549, > 100 µM (inactive); in the assay with 786-0 it was 4.18 µM (inactive); in the assay with T47D, 2.21 µM (inactive). Also, the GI50 in the assay with UO-31 was 5.25 µM (inactive); with SF-295 it was 2.52 µM (inactive); in the assay on EKVX, 2.11 µM (inactive); in the assay with OVCAR-8, 2.72 µM (inactive); with MDA-N, > 100 µM (inactive); with HL-60, 1.27 µM (inactive). For the same molecule, the GI50 in the assay on HOP-62 was 1.77 µM (inactive); in the assay with TK-10 it was 3.27 µM (inactive); in the assay with NCI/ADR-RES, 2.45 µM (inactive); with LOX IMVI, 2.06 µM (inactive); in the assay on MCF7, 0.577 µM (active); with KM12, 1.49 µM (inactive).
`CC1=CC(=O)c2ccccc2C1=O` [MENADIONE]: the GI50 in the assay on NCI-H226 is 14.3 µM (inactive); with A549 it was 18.5 µM (inactive); in the assay with CAKI-1 it was 16.1 µM (inactive); in the assay with UACC-257, 4.17 µM (inactive); in the assay on BT-549, 12.3 µM (inactive); in the assay with 786-0, 14.6 µM (inactive). Also, the GI50 with T47D is 2.01 µM (inactive); in the assay with UO-31, 2.65 µM (inactive); in the assay on SF-295, 16.5 µM (inactive); with EKVX, 17.2 µM (inactive); in the assay on OVCAR-8 it was 10.1 µM (inactive); with MDA-N, 0.91 µM (active). Besides, the GI50 is 2 µM (inactive) in the assay on HL-60; 16.1 µM (inactive) with HOP-62; 19.9 µM (inactive) in the assay on TK-10; 11.9 µM (inactive) in the assay with NCI/ADR-RES; 2.04 µM (inactive) with LOX IMVI; 8.34 µM (inactive) in the assay with MCF7. In the assay on KM12, the GI50 was 10.7 µM (inactive).
For `NC(Cc1cccc([N+](=O)[O-])c1)C(=O)O` (stereo not drawn), the GI50 in the assay on NCI-H226, in the assay on A549, in the assay with CAKI-1, in the assay on UACC-257, in the assay on BT-549 and with 786-0 was > 100 µM (inactive) each time. The GI50 in the assay on T47D, in the assay with UO-31, in the assay with SF-295, in the assay with EKVX, in the assay with OVCAR-8 and in the assay with MDA-N was > 100 µM (inactive) each time. Besides, the GI50 in the assay with HL-60, in the assay with HOP-62, in the assay on TK-10, in the assay with NCI/ADR-RES, with LOX IMVI and in the assay with MCF7 was > 100 µM (inactive) throughout. In addition, the GI50 in the assay on KM12 is > 100 µM (inactive).
In the case of `C/C=C(\C)C(=O)O[C@@H]1CC(C)(C)CC2C3=CCC4[C@]56CC[C@](O)(OC5)C(C)(C)C6CC[C@@]4(C)C3(C)CC[C@]21C(=O)O` (stereo partly drawn), the GI50 is > 100 µM (inactive) in the assay with NCI-H226; 53.3 µM (inactive) in the assay on A549; > 100 µM (inactive) in the assay on CAKI-1; > 100 µM (inactive) with UACC-257; > 100 µM (inactive) in the assay with BT-549; > 100 µM (inactive) with 786-0. The GI50 is > 100 µM (inactive) in the assay on T47D; > 100 µM (inactive) with SF-295; > 100 µM (inactive) in the assay on EKVX; > 100 µM (inactive) in the assay on OVCAR-8; > 100 µM (inactive) with MDA-N; 28.4 µM (inactive) with HL-60. Besides, the GI50 with HOP-62 is > 100 µM (inactive); with TK-10, > 100 µM (inactive); in the assay with NCI/ADR-RES, > 100 µM (inactive); with LOX IMVI it was 25.9 µM (inactive); with MCF7, > 100 µM (inactive); in the assay with KM12 it was 82.4 µM (inactive).
For `O=C(O)CNC(=O)c1ccc2cc(C(=O)N3CC(CCl)c4ccc([N+](=O)[O-])cc43)[nH]c2c1` (stereo not drawn), the GI50 in the assay on NCI-H226, in the assay on A549, in the assay with CAKI-1, in the assay on UACC-257, with BT-549 and in the assay on 786-0 was > 100 µM (inactive) throughout. Further, the GI50 in the assay with T47D, in the assay on UO-31, in the assay with SF-295, in the assay with EKVX, in the assay on OVCAR-8 and in the assay with MDA-N was > 100 µM (inactive) each time. For the same molecule, the GI50 with HL-60, in the assay on TK-10, in the assay with NCI/ADR-RES, in the assay on LOX IMVI, with MCF7 and with KM12 was > 100 µM (inactive) throughout.
For the molecule `C1COC(NC(C2CC2)C2CC2)=N1` [RILMENIDINE], the GI50 in the assay on NCI-H226, in the assay with A549, in the assay with CAKI-1, with UACC-257, in the assay on BT-549 and with 786-0 was > 100 µM (inactive) in each case. For the same molecule, the GI50 with T47D, with UO-31, in the assay with SF-295, in the assay with EKVX, with OVCAR-8 and with MDA-N was > 100 µM (inactive) in each case. The GI50 in the assay with HL-60, in the assay on TK-10, in the assay on NCI/ADR-RES, in the assay with LOX IMVI, in the assay on MCF7 and in the assay with KM12 was > 100 µM (inactive) throughout.
In the case of `O=C1C(OC(=O)c2ccccc2)=C(c2ccc(O)cc2)C(=O)C(OC(=O)c2ccccc2)=C1c1ccc(O)cc1`, the GI50 in the assay on NCI-H226, in the assay on A549, in the assay on CAKI-1, with UACC-257, with BT-549 and in the assay with 786-0 was > 100 µM (inactive) each time. The GI50 is > 100 µM (inactive) with T47D; > 100 µM (inactive) in the assay on UO-31; 61 µM (inactive) in the assay with SF-295; > 100 µM (inactive) in the assay on EKVX; > 100 µM (inactive) with OVCAR-8; > 100 µM (inactive) with MDA-N. Moreover, the GI50 is > 100 µM (inactive) in the assay on HL-60; > 100 µM (inactive) with TK-10; > 100 µM (inactive) in the assay on NCI/ADR-RES; 76.4 µM (inactive) with LOX IMVI; > 100 µM (inactive) in the assay with MCF7; 60.5 µM (inactive) in the assay with KM12.
